Assay results as given in US20190152992A1, “BENZODIOXANE DERIVATIVES AND THEIR PHARMACEUTICAL USE” (Orion Corporation, priority 2016, published 2019).
Structures can show the parent of a compound that is named as a salt.

What was measured:
[1] = molecular target: T1, human alpha2C receptors (Homo sapiens, UniProt P18825); test: Determination of alpha2C antagonistic activity in vitro (FLIPR calcium assay); conditions: for Kb: Alpha 2C Adrenaline Kb, Kb calculated from IC50 with the Cheng-Prusoff equation, adrenaline as agonist, CHO cells, human alpha2C
T1 sequence (P18825 1-462): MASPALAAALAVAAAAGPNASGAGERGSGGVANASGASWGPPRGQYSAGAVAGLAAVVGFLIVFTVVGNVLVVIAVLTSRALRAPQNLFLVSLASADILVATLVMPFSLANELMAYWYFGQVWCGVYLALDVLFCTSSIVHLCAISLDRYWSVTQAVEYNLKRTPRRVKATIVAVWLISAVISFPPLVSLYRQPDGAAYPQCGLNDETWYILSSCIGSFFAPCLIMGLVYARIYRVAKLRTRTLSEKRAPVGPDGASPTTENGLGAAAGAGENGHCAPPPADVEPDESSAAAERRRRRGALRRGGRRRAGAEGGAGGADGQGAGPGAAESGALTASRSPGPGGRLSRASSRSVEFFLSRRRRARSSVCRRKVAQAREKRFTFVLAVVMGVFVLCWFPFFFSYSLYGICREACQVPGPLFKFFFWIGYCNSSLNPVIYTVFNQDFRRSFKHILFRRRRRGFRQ
Experimental: Experiment 1: Determination of alpha2A and alpha2C Antagonistic Activity In Vitro
The growth medium was removed and the cells were incubated with the test compounds and the FLIPR Calcium 6 Assay reagent (Molecular Devices, CA, USA) for 2 h at 37° C. in dark. The test compounds (concentrations in cells 100 pM-10 μM) were dissolved in Probenecid-Ringer consisting of 150 mM NaCl, 3 mM KCl, 1.2 mM MgCl2, 1 mM CaCl2, 5 mM glucose, 20 mM HEPES and 2.5 mM probenecid (pH 7.4 adjusted with 1.0 M NaOH). […] All experiments were performed at 37° C. For agonism measurements the test compounds dissolved in Probenecid-Ringer were applied by FLIPR Tetra at 15 s time point. In order to determine antagonism, the cells were stimulated either with 100 nM adrenaline or noradrenaline and the test compounds were added to the cells 2 h before the experiment with the FLIPR Calcium 6 Assay reagent. […] Typically, there were four replicates at each concentration and six different dose levels. […] The minimum fluorescence value subtracted from the maximum value for each well was used in the calculations. ScreenWorks version 4.0 software was used for analyzing the results. Fitting of the antagonist dose-response results was performed with the free Hill equation and the IC50 values were fitted with IDBS XE software using model 200: y=(A+(B/(1+((x/C)̂D)))), where A is the curve maximum, B the curve minimum and C equals the EC50 value. D is slope factor (Hill). Kb was calculated with the Cheng-Prusoff equation Kb=A/((B/C)+1), where A is the IC50 of antagonist, B the concentration of agonist and C the EC50 of the agonist.

[2] = molecular target: T2, human alpha2A receptors (Homo sapiens, UniProt P08913); test: cell-based
T2 sequence (P08913 1-465): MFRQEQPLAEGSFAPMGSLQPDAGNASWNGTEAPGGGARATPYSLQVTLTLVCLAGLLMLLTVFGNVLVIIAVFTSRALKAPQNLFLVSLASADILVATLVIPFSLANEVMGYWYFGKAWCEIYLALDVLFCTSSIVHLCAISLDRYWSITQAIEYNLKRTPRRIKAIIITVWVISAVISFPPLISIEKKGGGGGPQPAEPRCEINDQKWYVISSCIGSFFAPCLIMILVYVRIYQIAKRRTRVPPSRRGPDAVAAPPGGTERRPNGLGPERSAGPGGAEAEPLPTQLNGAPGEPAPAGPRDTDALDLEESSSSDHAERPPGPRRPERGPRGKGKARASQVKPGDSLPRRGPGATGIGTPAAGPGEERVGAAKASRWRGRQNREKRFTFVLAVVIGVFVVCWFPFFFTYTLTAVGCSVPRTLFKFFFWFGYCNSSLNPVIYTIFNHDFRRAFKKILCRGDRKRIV

SMILES | IC50 [1] [nM] | Kb [1] [nM] | IC50 [2] [nM] | Kb [2] [nM]
CC(C)N1C(=O)C(=O)N([C@H]2CCCN(C[C@H]3COc4ccccc4O3)C2)C1=O [example 130, 1-((S)-1-(((S)-2,3-Dihydrobenzo[b][1,4]dioxin-2-yl)methyl)-piperidin-3-yl)-3-isopropylimidazolidine-2,4,5-trione] | 0.256 | 0.028 | 6590 | 296
O=C1C(=O)N([C@H]2CCCN(C[C@H]3COc4ccccc4O3)C2)C(=O)N1Cc1ccccc1 [example 131, 1-Benzyl-3-((S)-1-(((S)-2,3-dihydrobenzo[b][1,4]dioxin-2-yl)methyl)piperidin-3-yl)imidazolidine-2,4,5-trione] | 1.64 | 0.165 | 5700 | 256
CCCN1C(=O)C(=O)N([C@H]2CCCN(C[C@H]3COc4ccccc4O3)C2)C1=O [example 132, 1-((S)-1-(((S)-2,3-Dihydrobenzo[b][1,4]dioxin-2-yl)methyl)-piperidin-3-yl)-3-propylimidazolidine-2,4,5-trione] | 0.308 | 0.031 | > 10000 | > 449
CC(C)(C)N1C(=O)C(=O)N([C@H]2CCCN(C[C@H]3COc4ccccc4O3)C2)C1=O [example 134, 1-tert-Butyl-3-((S)-1-(((S)-2,3-dihydrobenzo[b][1,4]dioxin-2-yl)methyl)piperidin-3-yl)imidazolidine-2,4,5-trione] | 0.796 | 0.08 | > 10000 | > 449
CN(C)CCN1C(=O)C(=O)N([C@H]2CCCN(C[C@H]3COc4ccccc4O3)C2)C1=O [example 135, 1-((S)-1-(((S)-2,3-Dihydrobenzo[b][1,4]dioxin-2-yl)methyl)-piperidin-3-yl)-3-(2-(dimethylamino)ethyl)imidazolidine-2,4,5-trione] | 444 | 44.7 | > 10000 | > 449
O=C1C(=O)N([C@H]2CCCN(C[C@H]3COc4ccccc4O3)C2)C(=O)N1C1CCNCC1 [example 137, 1-((S)-1-(((S)-2,3-Dihydrobenzo[b][1,4]dioxin-2-yl)methyl)piperidin-3-yl)-3-(piperidin-4-yl)imidazolidine-2,4,5-trione dihydrochloride] | 5.5 | 0.554 | > 10000 | > 449
CN1C(=O)C(=O)N([C@H]2CCCN(C[C@H]3COc4ccccc4O3)C2)C1=O [example 138, 1-((S)-1-(((S)-2,3-Dihydrobenzo[b][1,4]dioxin-2-yl)methyl)piperidin-3-yl)-3-methylimidazolidine-2,4,5-trione] | 4.35 | 0.438 | > 10000 | > 449
CC(=O)N1CCC(N2C(=O)C(=O)N([C@H]3CCCN(C[C@H]4COc5ccccc5O4)C3)C2=O)CC1 [example 139, 1-(1-Acetylpiperidin-4-yl)-3-((S)-1-(((S)-2,3-dihydrobenzo[b][1,4]-dioxin-2-yl)methyl)piperidin-3-yl)imidazolidine-2,4,5-trione] | 0.113 | 0.012 | 9830 | 441
O=C1C(=O)N([C@H]2CCCN(C[C@H]3COc4ccccc4O3)C2)C(=O)N1Cc1ccncc1 [example 140, 1-((S)-1-(((S)-2,3-Dihydrobenzo[b][1,4]dioxin-2-yl)methyl)piperidin-3-yl)-3-(pyridin-4-ylmethyl)imidazolidine-2,4,5-trione] | 2.19 | 0.22 | > 10000 | > 449
CC(C)CN1C(=O)C(=O)N([C@H]2CCCN(C[C@H]3COc4ccccc4O3)C2)C1=O [example 141, 1-((S)-1-(((S)-2,3-Dihydrobenzo[b][1,4]dioxin-2-yl)methyl)piperidin-3-yl)-3-isobutylimidazolidine-2,4,5-trione] | 0.446 | 0.045 | > 10000 | > 449
